The record followed here is patent US11919902B2, “Aryl-bipyridine amine derivatives as phosphatidylinositol phosphate kinase inhibitors” (HiberCell, Inc., priority 2017, dated 2024).

As usually defined, the IC50 is the concentration at which inhibition is half-maximal.

For test [1], the target named is T1, PIP4K2A (full length protein, SignalChem) (Homo sapiens, UniProt P48426).
T1 construct: 4 nM PIP4K2A (full length protein, SignalChem); purchased SignalChem
T1 sequence (P48426 1-406): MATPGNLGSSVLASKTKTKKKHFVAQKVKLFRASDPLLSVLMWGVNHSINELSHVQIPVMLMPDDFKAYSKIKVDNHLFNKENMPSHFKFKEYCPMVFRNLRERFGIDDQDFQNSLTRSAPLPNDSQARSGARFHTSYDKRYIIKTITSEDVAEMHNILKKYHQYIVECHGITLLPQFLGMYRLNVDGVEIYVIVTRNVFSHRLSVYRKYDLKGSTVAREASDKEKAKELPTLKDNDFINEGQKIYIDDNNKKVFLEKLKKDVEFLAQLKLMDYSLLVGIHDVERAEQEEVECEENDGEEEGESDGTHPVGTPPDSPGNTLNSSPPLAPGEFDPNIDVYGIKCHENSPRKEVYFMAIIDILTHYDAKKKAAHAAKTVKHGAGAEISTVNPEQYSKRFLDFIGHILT
Description: Kinase Assay PIP4K2 A (Sprint); ADP-Glo biochemical assay. To be noted: Table 2; compounds listed under IC50 range headings. In outline:
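ADP-Glo luminescence detected ADP after a 1 h RT reaction started with 60 μM ATP solution. Before that, full-length PIP4K2A (4 nM in mix) with 100 μM PI(5)P diC8 was pre-incubated 15 min with compounds in MOPS buffer pH 7.2, 25 mM MgCl2, 0.005% Tween 20. IC50 derived from % inhibition relative to DMSO over 10 three-fold concentrations.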

The next test concerns the target T2, GST tagged PIP4KtypeIIB (Homo sapiens, UniProt P78356).
T2 construct: made in house; host or cells: E. coli
T2 sequence (P78356 1-416): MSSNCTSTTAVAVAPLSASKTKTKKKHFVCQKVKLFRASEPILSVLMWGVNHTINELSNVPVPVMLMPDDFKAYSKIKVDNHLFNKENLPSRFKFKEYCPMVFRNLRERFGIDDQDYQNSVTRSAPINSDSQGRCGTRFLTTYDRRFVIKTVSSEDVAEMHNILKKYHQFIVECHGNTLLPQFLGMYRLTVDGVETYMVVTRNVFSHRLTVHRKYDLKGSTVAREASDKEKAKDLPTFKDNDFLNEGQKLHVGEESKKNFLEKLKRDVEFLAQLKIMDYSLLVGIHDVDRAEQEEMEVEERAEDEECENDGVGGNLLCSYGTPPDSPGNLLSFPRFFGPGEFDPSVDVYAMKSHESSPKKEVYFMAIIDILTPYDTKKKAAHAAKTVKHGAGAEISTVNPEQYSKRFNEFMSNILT
Description: Trans-FI P kinase assay PIP4K2B (PIP4KtypeIIB inhibition assay). The class given is biochemical. To be noted: Table 4; compounds listed under IC50 range headings; 100 uM GTP, 5 nM PIP4KIIB; read-out: Trans-FI P kinase assays: PIP4K2B IC50. In outline:
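Transcreener FI fluorescence, converted to GDP by calibration, tracked product from 5 nM E. coli-expressed GST-PIP4KIIB acting on 80 uM PI5P (DOPE carrier) with 100 uM GTP. Compound (top 4.8 uM final, 5% DMSO) was preincubated 1 h at 27 C before the 2 h reaction; IC50 fitted from residual activity.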

As for `CN1CCn2c(cc3c(-c4cncc(-c5ccc(N6CC(C)(C)CCC6=O)cc5)c4)ccnc32)C1=O` [Example 326, 4-(5-(4-(5,5-dimethyl-2-oxopiperidin-1-yl)phenyl)pyridin-3-yl)-7-methyl-8,9-dihydropyrido[3′,2′:4,5]pyrrolo[1,2-a]pyrazin-6(7H)-one], the IC50 in test [1] was in the range of 1000 to 2500 nM; on GST tagged PIP4KtypeIIB, 100 to 1000 nM.

For `CC(C)n1cnnc1-c1ccc(-c2cncc(-c3ccnc4c3cc3n4CCN(Cc4ccncc4)C3=O)c2)cc1` [Example 385, 4-(5-(4-(4-isopropyl-4H-1,2,4-triazol-3-yl)phenyl)pyridin-3-yl)-7-(pyridin-4-ylmethyl)-8,9-dihydropyrido[3′,2′:4,5]pyrrolo[1,2-a]pyrazin-6(7H)-one], the IC50 was 100 to 1000 nM in test [1] and 1 to 10 nM at GST tagged PIP4KtypeIIB.

As to `CCn1cnnc1-c1ccc(-c2cncc(-c3ccnc4c3cc3n4CCN(C)C3=O)c2)cc1` [Example 358, 4-(5-(4-(4-ethyl-4H-1,2,4-triazol-3-yl)phenyl)pyridin-3-yl)-7-methyl-8,9-dihydropyrido[3′,2′:4,5]pyrrolo[1,2-a]pyrazin-6(7H)-one], the IC50 is 100 to 1000 nM in test [1] and 1 to 10 nM at GST tagged PIP4KtypeIIB.

Turning to `Cc1c[nH]c2nccc(-c3cnc(N)c(-c4ccc(N5CCCC5=O)cc4)c3)c12` [Example 309, 1-(4-(2-amino-5-(3-methyl-1H-pyrrolo[2,3-b]pyridin-4-yl)pyridin-3-yl)phenyl)pyrrolidin-2-one], the IC50 fell in the range of 100 to 1000 nM in test [1] and 10 to 100 nM at GST tagged PIP4KtypeIIB.

For the molecule `Cc1ccnnc1-c1ccc(-c2cncc(-c3ccnc4c3cc3n4CCN(C)C3=O)c2)cc1` [Example 370, 7-methyl-4-(5-(4-(4-methylpyridazin-3-yl)phenyl)pyridin-3-yl)-8,9-dihydropyrido[3′,2′:4,5]pyrrolo[1,2-a]pyrazin-6(7H)-one], the IC50 was in the range of 5 to 100 nM in test [1] and 1 to 10 nM at GST tagged PIP4KtypeIIB.

On to `CCN(C)C(=O)c1ccc(-c2cncc(-c3ccnc4c3cc3n4CCN(C)C3=O)c2)cc1` [Example 324, N-ethyl-N-methyl-4-(5-(7-methyl-6-oxo-6,7,8,9-tetrahydropyrido[3′,2′:4,5]pyrrolo[1,2-a]pyrazin-4-yl)pyridin-3-yl)benzamide], for which the IC50 lay in the range of 100 to 1000 nM in test [1] and 10 to 100 nM on GST tagged PIP4KtypeIIB.

With `Cc1c[nH]c2nccc(-c3cc(-c4ccc(N5CCCC5=O)cc4)cnc3N)c12` [Example 316, 1-(4-(6-amino-5-(3-methyl-1H-pyrrolo[2,3-b]pyridin-4-yl)pyridin-3-yl)phenyl)pyrrolidin-2-one], the values for the IC50 (in test [1]; at GST tagged PIP4KtypeIIB) were 1000 to 2500 nM and 10 to 100 nM, respectively.

Take `Cc1ccc2nc(CNC(=O)c3cc4c(-c5cncc(-c6ccc(N7CCCC7=O)cc6)c5)ccnc4[nH]3)[nH]c2c1` [Example 320, N-((6-methyl-1H-benzo[d]imidazol-2-yl)methyl)-4-(5-(4-(2-oxopyrrolidin-1-yl)phenyl)pyridin-3-yl)-1H-pyrrolo[2,3-b]pyridine-2-carboxamide]: the IC50 in test [1] was 1000 to 2500 nM; at GST tagged PIP4KtypeIIB it was 100 to 1000 nM.

Consider `Cn1cc(-c2ccc(N)nc2)c2cc(-c3cncc(-c4ccc(N5CCCC5=O)cc4)c3)cnc21` [Example 347, 1-(4-(5-(3-(6-aminopyridin-3-yl)-1-methyl-1H-pyrrolo[2,3-b]pyridin-5-yl)pyridin-3-yl)phenyl)pyrrolidin-2-one], for which the IC50 (in test [1]; on GST tagged PIP4KtypeIIB) was 100 to 1000 nM in each case.

Consider `O=C(COc1cccc2c1C(=O)N(C1CCC(=O)NC1=O)C2=O)NCCOCCOCCOCCNC(=O)c1cc2c(-c3cncc(-c4ccc(N5CCCC5=O)cc4)c3)ccnc2[nH]1` (stereo not shown) [Example 393, N-(1-((2-(2,6-dioxopiperidin-3-yl)-1,3-dioxoisoindolin-4-yl)oxy)-2-oxo-6,9,12-trioxa-3-azatetradecan-14-yl)-4-(5-(4-(2-oxopyrrolidin-1-yl)phenyl)pyridin-3-yl)-1H-pyrrolo[2,3-b]pyridine-2-carboxamide], for which the IC50 in test [1] fell in the range of 1000 to 2500 nM; at GST tagged PIP4KtypeIIB, 100 to 1000 nM.

Turning to `CN1CCn2c(cc3c(-c4cncc(-c5ccc(C(=O)N6CCCC6)cc5)c4)ccnc32)C1=O` [Example 349, 7-methyl-4-(5-(4-(pyrrolidine-1-carbonyl)phenyl)pyridin-3-yl)-8,9-dihydropyrido[3′,2′:4,5]pyrrolo[1,2-a]pyrazin-6(7H)-one], the IC50 (in test [1]; on GST tagged PIP4KtypeIIB) was 100 to 1000 nM each time.

Regarding `CC(C)c1cncc(-c2ccc(-c3cncc(-c4ccnc5c4cc4n5CCN(C)C4=O)c3)cc2)c1` [Example 380, 4-(5-(4-(5-isopropylpyridin-3-yl)phenyl)pyridin-3-yl)-7-methyl-8,9-dihydropyrido[3′,2′:4,5]pyrrolo[1,2-a]pyrazin-6(7H)-one], the IC50 is 1000 to 2500 nM in test [1] and 2500 to 5000 nM at GST tagged PIP4KtypeIIB.

In the case of `CC(C)Cn1cnnc1-c1ccc(-c2cc(-c3ccnc4c3cc3n4CCN(CC4CC4)C3=O)cnc2N)cc1` [Example 391, 4-(6-amino-5-(4-(4-isobutyl-4H-1,2,4-triazol-3-yl)phenyl)pyridin-3-yl)-7-(cyclopropylmethyl)-8,9-dihydropyrido[3′,2′:4,5]pyrrolo[1,2-a]pyrazin-6(7H)-one], the IC50 in test [1] was 1000 to 2500 nM; at GST tagged PIP4KtypeIIB, 10 to 100 nM.

With `O=C(NCc1cccc2c1B(O)OC2)c1cc2c(-c3cncc(-c4ccc(N5CCCC5=O)cc4)c3)ccnc2[nH]1` [Example 379, N-((1-hydroxy-1,3-dihydrobenzo[c][1,2]oxaborol-7-yl)methyl)-4-(5-(4-(2-oxopyrrolidin-1-yl)phenyl)pyridin-3-yl)-1H-pyrrolo[2,3-b]pyridine-2-carboxamide], the results for the IC50 (in test [1]; at GST tagged PIP4KtypeIIB) were 5 to 100 nM and 10 to 100 nM, respectively.

For `CC(C)Cn1cnnc1-c1ccc(-c2cncc(-c3ccnc4[nH]c(C(=O)NCc5ccccc5)cc34)c2)cc1` [Example 372, N-benzyl-4-(5-(4-(4-isobutyl-4H-1,2,4-triazol-3-yl)phenyl)pyridin-3-yl)-1H-pyrrolo[2,3-b]pyridine-2-carboxamide], the IC50 in test [1] is 1000 to 2500 nM; on GST tagged PIP4KtypeIIB, 10 to 100 nM.

Regarding `CC(C)Cn1cnnc1-c1ccc(-c2cncc(-c3ccnc4c3cc3n4CCN(c4ccccn4)C3=O)c2)cc1` [Example 367, 4-(5-(4-(4-isobutyl-4H-1,2,4-triazol-3-yl)phenyl)pyridin-3-yl)-7-(pyridin-2-yl)-8,9-dihydropyrido[3′,2′:4,5]pyrrolo[1,2-a]pyrazin-6(7H)-one], the IC50 lay in the range of 2500 to 5000 nM in test [1] and 1 to 10 nM at GST tagged PIP4KtypeIIB.

Take `CC(=O)Nc1ncc(-c2cn(C)c3ncc(-c4cncc(-c5ccc(N6CCCC6=O)cc5)c4)cc23)cn1` [Example 350, N-(5-(1-methyl-5-(5-(4-(2-oxopyrrolidin-1-yl)phenyl)pyridin-3-yl)-1H-pyrrolo[2,3-b]pyridin-3-yl)pyrimidin-2-yl)acetamide]: the figures for the half-inhibitory concentration (IC50) (in test [1]; on GST tagged PIP4KtypeIIB) were 5 to 100 nM and 100 to 1000 nM, respectively.

Take `C[C@@H]1CCC(=O)N1c1ccc(-c2cncc(-c3ccnc4c3cc3n4CCN(C)C3=O)c2)cc1` [Example 306, (R)-7-methyl-4-(5-(4-(2-methyl-5-oxopyrrolidin-1-yl)phenyl)pyridin-3-yl)-8,9-dihydropyrido[3′,2′:4,5]pyrrolo[1,2-a]pyrazin-6(7H)-one]: the IC50 in test [1] was 5 to 100 nM; on GST tagged PIP4KtypeIIB, 1 to 10 nM.

On to `Cc1cc2nc(CNC(=O)c3cc4c(-c5cncc(-c6ccc(N7CCCC7=O)cc6)c5)ccnc4[nH]3)[nH]c2cc1C` [Example 315, N-((5,6-dimethyl-1H-benzo[d]imidazol-2-yl)methyl)-4-(5-(4-(2-oxopyrrolidin-1-yl)phenyl)pyridin-3-yl)-1H-pyrrolo[2,3-b]pyridine-2-carboxamide], for which the figures for the IC50 (in test [1]; at GST tagged PIP4KtypeIIB) were 1000 to 2500 nM and 100 to 1000 nM, respectively.

As to `Cc1c2n(c3nccc(-c4cncc(-c5ccc(-c6nncn6C6CCC6)cc5)c4)c13)CCN(c1ccccn1)C2=O` [Example 356, 4-(5-(4-(4-cyclobutyl-4H-1,2,4-triazol-3-yl)phenyl)pyridin-3-yl)-5-methyl-7-(pyridin-2-yl)-8,9-dihydropyrido[3′,2′:4,5]pyrrolo[1,2-a]pyrazin-6(7H)-one], the IC50 is below 5000 nM in test [1] and 100 to 1000 nM on GST tagged PIP4KtypeIIB.
